Experimental findings from US11208400B2, “Substituted 6-(1H-pyrazol-1-yl)pyrimidin-4-amine derivatives and uses thereof” (Bayer Aktiengesellschaft, priority 2016, dated 2021) are described below.

In the assay the target is T1, human Npt2a (Homo sapiens, UniProt Q06495).
T1 construct: expressed in transfected cells
T1 sequence (Q06495 1-639): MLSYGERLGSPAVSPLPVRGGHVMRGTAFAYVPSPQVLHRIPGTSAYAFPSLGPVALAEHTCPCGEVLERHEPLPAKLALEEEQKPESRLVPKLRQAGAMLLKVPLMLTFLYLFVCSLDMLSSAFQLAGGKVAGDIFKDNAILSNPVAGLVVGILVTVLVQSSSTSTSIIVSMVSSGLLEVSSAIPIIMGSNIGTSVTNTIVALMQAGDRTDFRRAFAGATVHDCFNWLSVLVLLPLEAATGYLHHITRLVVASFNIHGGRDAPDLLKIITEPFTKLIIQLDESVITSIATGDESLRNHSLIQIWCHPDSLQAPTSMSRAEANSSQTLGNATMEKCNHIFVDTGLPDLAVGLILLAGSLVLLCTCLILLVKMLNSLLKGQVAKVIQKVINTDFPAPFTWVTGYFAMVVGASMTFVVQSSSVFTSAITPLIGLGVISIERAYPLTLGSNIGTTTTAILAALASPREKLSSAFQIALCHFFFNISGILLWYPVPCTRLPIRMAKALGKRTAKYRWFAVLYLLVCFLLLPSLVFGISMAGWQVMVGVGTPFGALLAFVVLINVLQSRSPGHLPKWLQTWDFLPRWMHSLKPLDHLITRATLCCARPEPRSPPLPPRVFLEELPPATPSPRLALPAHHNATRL
The assay can be described thus: Npt2a activity cell based assay, membrane potential dye, CHO T-REx hNpt2a cells. The following applies: doxycycline-induced, depolarization by sodium phosphate influx, average or median values if tested more than once. The essentials: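 Doxycycline-induced (0.5 μg/mL, 24 h) CHO T-REx cells were loaded with membrane potential dye in sodium-free NHE buffer (pH 7.4) and exposed to compound (50 μM–1 nM, 5 min, room temperature).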
In turn, `Cc1nn(-c2cc(Nc3n[nH]c(-c4ccc(F)cc4)c3C)ncn2)c(C)c1Cl` [Example 72, 6-(4-chloro-3,5-dimethyl-1H-pyrazol-1-yl)-N-[5-(4-fluorophenyl)-4-methyl-1H-pyrazol-3-yl]pyrimidin-4-amine] gave a half-maximal inhibitory concentration (IC50) of 15.4 nM.
Consider `COC(C)c1c(C)nn(-c2cc(Nc3nn(C)c(-c4ccc(F)cc4)c3C)ncn2)c1C` (racemic) [Example 343, (±)-N-[5-(4-fluorophenyl)-1,4-dimethyl-1H-pyrazol-3-yl]-6-{4-[1-methoxyethyl]-3,5-dimethyl-1H-pyrazol-1-yl}pyrimidin-4-amine], for which the IC50 was determined as 6 nM.
On to `Cc1nn(-c2cc(Nc3c(C)c(-c4ccc(F)cn4)nn3CC3CC3)ncn2)c(C)c1C(C)(C)O` [Example 458, 2-[1-(6-{[1-(cyclopropylmethyl)-3-(5-fluoropyridin-2-yl)-4-methyl-1H-pyrazol-5-yl]amino}pyrimidin-4-yl)-3,5-dimethyl-1H-pyrazol-4-yl]propan-2-ol], for which the midpoint of inhibition, the IC50, lay at 1550 nM.
As for `Cc1cc(C)n(-c2cc(Nc3nn(C)c(-c4cccc(C#N)c4)c3C)ncn2)n1` [Example 189, 3-(3-{[6-(3,5-dimethyl-1H-pyrazol-1-yl)pyrimidin-4-yl]amino}-1,4-dimethyl-1H-pyrazol-5-yl)benzonitrile], the IC50 was determined as 74 nM.
For `COCCn1nc(-c2ccc(F)cc2)c(C)c1Nc1cc(-n2nc(C)cc2C)ncn1` [Example 525, 6-(3,5-dimethyl-1H-pyrazol-1-yl)-N-[3-(4-fluorophenyl)-1-(2-methoxyethyl)-4-methyl-1H-pyrazol-5-yl]pyrimidin-4-amine] the value was 4 nM.
Regarding `CCc1c(-c2ccc(F)cc2)nn(CC2CC2)c1Nc1cc(-n2nc(C)c(Cl)c2C)ncn1` [Example 115, 6-(4-chloro-3,5-dimethyl-1H-pyrazol-1-yl)-N-[1-(cyclopropylmethyl)-4-ethyl-3-(4-fluorophenyl)-1H-pyrazol-5-yl]pyrimidin-4-amine], the IC50 is less than 1.6 nM.
Turning to `Cc1nn(-c2cc(Nc3c(C)c(C45C6C7C4C4C5C6C74C#N)nn3CC3CC3)ncn2)c(C)c1Cl` (stereo not drawn) [Example 513, 4-[5-{[6-(4-chloro-3,5-dimethyl-1H-pyrazol-1-yl)pyrimidin-4-yl]amino}-1-(cyclopropylmethyl)-4-methyl-1H-pyrazol-3-yl]cubane-1-carbonitrile], the IC50 came to 7 nM.
For `Cc1nn(-c2cc(Nc3c(Cl)c(-c4ccc(F)cc4F)nn3C)ncn2)c(C)c1Cl` [Example 48, N-[4-chloro-3-(2,4-difluorophenyl)-1-methyl-1H-pyrazol-5-yl]-6-(4-chloro-3,5-dimethyl-1H-pyrazol-1-yl)pyrimidin-4-amine] the value was 310 nM; for `Cc1nn(-c2cc(Nc3c(C)c(-c4ccc(F)cc4)nn3CC3CC3)ncn2)c(C)c1C(O)C(F)F` (racemic) [Example 392, (±)-1-[1-(6-{[1-(cyclopropylmethyl)-3-(4-fluorophenyl)-4-methyl-1H-pyrazol-5-yl]amino}pyrimidin-4-yl)-3,5-dimethyl-1H-pyrazol-4-yl]-2,2-difluoroethanol], 18 nM.
Under `Cc1cc(C)n(-c2cc(Nc3nn(C)c(-c4ccccc4)c3C)ncn2)n1` [Example 62, N-(1,4-dimethyl-5-phenyl-1H-pyrazol-3-yl)-6-(3,5-dimethyl-1H-pyrazol-1-yl)pyrimidin-4-amine] stands 135 nM; under `Cc1nn(-c2cc(Nc3c(C)c(-c4ccc(C#N)cc4)nn3CC3CC3)ncn2)c(C)c1C(O)C(F)(F)F` (single isomer, unassigned) [Example 359, 4-{1-(cyclopropylmethyl)-5-[(6-{3,5-dimethyl-4-[2,2,2-trifluoro-1-hydroxyethyl]-1H-pyrazol-1-yl}pyrimidin-4-yl)amino]-4-methyl-1H-pyrazol-3-yl}benzonitrile], 15 nM; under `CCc1c(Nc2cc(-n3nc(C)cc3C(F)F)ncn2)nn(C)c1-c1ccc(F)cc1` [Example 64, 6-[5-(difluoromethyl)-3-methyl-1H-pyrazol-1-yl]-N-[4-ethyl-5-(4-fluorophenyl)-1-methyl-1H-pyrazol-3-yl]pyrimidin-4-amine], 6.25 nM.
For `CCc1c(-c2ccc(C#N)cc2)nn(C)c1Nc1cc(-n2nc(C)cc2C)ncn1` [Example 209, 4-(5-{[6-(3,5-dimethyl-1H-pyrazol-1-yl)pyrimidin-4-yl]amino}-4-ethyl-1-methyl-1H-pyrazol-3-yl)benzonitrile] the value was 18 nM; for `CC(=O)c1c(C)nn(-c2cc(Nc3nn(C)c(-c4ccc(F)cc4)c3C)ncn2)c1C` [Example 113, 1-[1-(6-{[5-(4-fluorophenyl)-1,4-dimethyl-1H-pyrazol-3-yl]amino}pyrimidin-4-yl)-3,5-dimethyl-1H-pyrazol-4-yl]ethanone], 32 nM; for `CCOC(=O)c1c(C)nn(-c2cc(Nc3c(OC)c(-c4ccc(C#N)cc4)nn3C)ncn2)c1C` [Example 446, ethyl 1-(6-{[3-(4-cyanophenyl)-4-methoxy-1-methyl-1H-pyrazol-5-yl]amino}pyrimidin-4-yl)-3,5-dimethyl-1H-pyrazole-4-carboxylate], 12 nM.
`Cc1cc(C)n(-c2cc(Nc3nn(C)c(-c4ccc(Cl)cc4)c3C)ncn2)n1` [Example 355, N-[5-(4-chlorophenyl)-1,4-dimethyl-1H-pyrazol-3-yl]-6-(3,5-dimethyl-1H-pyrazol-1-yl)pyrimidin-4-amine] yielded a half-inhibitory concentration (IC50) of 20 nM.
With `CCOC(=O)c1c(C)nn(-c2cc(Nc3c(Cl)c(-c4ccccc4)nn3C)ncn2)c1C` [Example 79, ethyl 1-{6-[(4-chloro-1-methyl-3-phenyl-1H-pyrazol-5-yl)amino]pyrimidin-4-yl}-3,5-dimethyl-1H-pyrazole-4-carboxylate], the IC50 amounted to 31 nM.
For `CCc1c(Nc2cc(-n3nc(C)c(C(C)(C)O)c3C(F)F)ncn2)nn(C)c1-c1ccc(F)cc1` [Example 190, 2-[5-(difluoromethyl)-1-(6-{[4-ethyl-5-(4-fluorophenyl)-1-methyl-1H-pyrazol-3-yl]amino}pyrimidin-4-yl)-3-methyl-1H-pyrazol-4-yl]propan-2-ol] the value was 210 nM; for `Cc1cc(C)n(-c2cc(Nc3nn(C)c(-c4ccc(C(F)(F)F)cc4)c3C)ncn2)n1` [Example 101, 6-(3,5-dimethyl-1H-pyrazol-1-yl)-N-{1,4-dimethyl-5-[4-(trifluoromethyl)phenyl]-1H-pyrazol-3-yl}pyrimidin-4-amine], 11.5 nM; for `Cc1cc(C(F)F)n(-c2cc(Nc3nn(C)c(-c4ccc(F)cc4)c3Cl)ncn2)n1` [Example 346, N-[4-chloro-5-(4-fluorophenyl)-1-methyl-1H-pyrazol-3-yl]-6-[5-(difluoromethyl)-3-methyl-1H-pyrazol-1-yl]pyrimidin-4-amine], 4 nM.
Consider `COc1c(Nc2cc(-n3nc(C)c(CC(C)(C)O)c3C)ncn2)nn(C)c1-c1ccc(C#N)cc1` [Example 531, 4-[3-({6-[4-(2-hydroxy-2-methylpropyl)-3,5-dimethyl-1H-pyrazol-1-yl]pyrimidin-4-yl}amino)-4-methoxy-1-methyl-1H-pyrazol-5-yl]benzonitrile], for which the half-inhibitory concentration (IC50) is 1500 nM.
`Cc1cc(C)n(-c2cc(Nc3c(C)c(-c4ccc(C(F)(F)F)cc4)nn3CC3CC3)ncn2)n1` [Example 306, N-{1-(cyclopropylmethyl)-4-methyl-3-[4-(trifluoromethyl)phenyl]-1H-pyrazol-5-yl}-6-(3,5-dimethyl-1H-pyrazol-1-yl)pyrimidin-4-amine]: it took 60 nM to reach half-maximal inhibition (IC50).
Molecule `Cc1nn(-c2cc(Nc3c(C)c(-c4ccc(C#N)cc4)nn3CCC3CC3)ncn2)c(C)c1Cl` [Example 221, 4-[5-{[6-(4-chloro-3,5-dimethyl-1H-pyrazol-1-yl)pyrimidin-4-yl]amino}-1-(2-cyclopropylethyl)-4-methyl-1H-pyrazol-3-yl]benzonitrile] returned an IC50 of 6 nM. Compared with the last molecule, the IC50 is about 10-fold lower.
Take `COC(=O)Nc1c(C)nn(-c2cc(Nc3c(C)c(-c4ccc(F)cc4)nn3CC3CC3)ncn2)c1C` [Example 556, methyl [1-(6-{[1-(cyclopropylmethyl)-3-(4-fluorophenyl)-4-methyl-1H-pyrazol-5-yl]amino}pyrimidin-4-yl)-3,5-dimethyl-1H-pyrazol-4-yl]carbamate]: inhibition was half-maximal at 810 nM (IC50).
In turn, `CCOC(=O)c1c(Cl)c(C)nn1-c1cc(Nc2c(Cl)c(-c3ccc(F)cc3)nn2C)ncn1` [Example 448, ethyl 4-chloro-1-(6-{[4-chloro-3-(4-fluorophenyl)-1-methyl-1H-pyrazol-5-yl]amino}pyrimidin-4-yl)-3-methyl-1H-pyrazole-5-carboxylate] registered a concentration for half-maximal inhibition (IC50) of 440 nM.
Turning to `CCOC(=O)c1c(C)nn(-c2cc(Nc3c(CC)c(-c4ccc(F)cc4)nn3CC3CC3)ncn2)c1C` [Example 147, ethyl 1-(6-{[1-(cyclopropylmethyl)-4-ethyl-3-(4-fluorophenyl)-1H-pyrazol-5-yl]amino}pyrimidin-4-yl)-3,5-dimethyl-1H-pyrazole-4-carboxylate], the IC50 was determined as 3 nM.
The molecule `Cc1cc(C)n(-c2cc(Nc3nn(C)c(-c4ccc(F)cc4)c3C3CC3)ncn2)n1` [Example 41, N-[4-cyclopropyl-5-(4-fluorophenyl)-1-methyl-1H-pyrazol-3-yl]-6-(3,5-dimethyl-1H-pyrazol-1-yl)pyrimidin-4-amine] had a 50% inhibitory concentration (IC50) of 11 nM.
